Patent US11833160B2, “Ursodeoxycholic acid derivatives as HDAC inhibitors for the treatment of polycystic diseases” (UNIVERSIDAD DEL PAIS VASCO/EUSKAL HERRIKO UNIBERTSITATEA, priority 2017, dated 2023)

Experiments:
human HDAC8 = target: T1, human HDAC8 (Homo sapiens, UniProt Q9BY41); assay: HDAC8 enzymatic activity assay (fluorogenic peptide); type: biochemical; settings: 10-dose, 3-fold serial dilution, triplicate
T1 construct: purchased BioMol SE-145; host or cells: E. coli
T1 sequence (Q9BY41 1-377): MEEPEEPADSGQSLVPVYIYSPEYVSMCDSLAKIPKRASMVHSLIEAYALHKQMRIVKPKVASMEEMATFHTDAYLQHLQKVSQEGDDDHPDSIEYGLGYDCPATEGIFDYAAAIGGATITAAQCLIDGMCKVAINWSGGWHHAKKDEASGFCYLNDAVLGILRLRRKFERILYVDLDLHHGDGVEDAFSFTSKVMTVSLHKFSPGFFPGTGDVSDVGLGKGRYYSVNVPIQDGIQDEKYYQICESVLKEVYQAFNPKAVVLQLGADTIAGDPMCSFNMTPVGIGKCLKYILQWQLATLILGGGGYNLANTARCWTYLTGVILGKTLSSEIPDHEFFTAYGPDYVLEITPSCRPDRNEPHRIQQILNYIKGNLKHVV
Description: (§1) Peptide substrates: all HDAC assays were performed using acetylated peptide substrates labeled with 7-amino-4-methylcoumarin (AMC): • Substrate for isoforms HDAC1, 2, 3, 6, 10, 11, and HeLa nuclear extract assays: acetylated fluorogenic peptide from p53 residues 379-382 (RHKKAc). • Substrate for isoforms HDAC4, 5, 7, 9: fluorogenic Boc-L-Lys (s-trifluoroacetyl)-AMC. • Substrate for HDAC8 assays: acetylated fluorogenic peptide from p53 residues 379-382 (RHKAcKAc).
(§2) 50 μl of peptide substrate (see “peptide substrates” section above) and an optimal concentration of the corresponding enzyme (see “enzymes” section above) in the assay buffer at a final DMSO concentration of 1% were incubated in the presence of gradient concentrations of inhibitors (10-dose IC50 mode with 3-fold serial dilution) at 30° C. for 2 hours. The reactions were carried out in a 96-well microplate for fluorometry in a 50 μl reaction volume. After the deacetylation reaction, Fluor-de-Lys-Developer (BioMol Cat. #KI-105) was added to each well to digest the deacetylated substrate, thereby producing the fluorescent signal. The reaction was carried out for 45 minutes at 30° C. with 5% CO2; the fluorescent signal was then measured using an excitation wavelength of 360 nm and an emission wavelength of 460 nm in a microplate-reading fluorometer (GeminiXS, Molecular Devices, Sunnyvale, CA). A curve of deacetylated standard (Biomol, Cat. #KI-142; made from 100 μM with 1:2 dilution and 10 doses, 6 μl) allowed the conversion of the fluorescent signal into micromoles of deacetylated product. All experiments were performed in triplicate. The IC50s were calculated by fitting the experimental data to dose-response curve. DMSO was used as negative control; Trichostatin A (Biomol Cat. #GR-309) was used as positive control inhibitor.
(§3) Enzymatic activity assays were carried out in 11 HDAC enzymes, including HDAC6.

human HDAC1 = target: T2, human HDAC1 (Homo sapiens, UniProt Q13547); assay: HDAC1 enzymatic activity assay (fluorogenic peptide); type: biochemical; settings: 10-dose, 3-fold serial dilution, triplicate
T2 construct: GST (C); purchased BioMol SE-456; host or cells: baculovirus / Sf9 cells
Description: as §1, §2, §3

[1] = test system: polycystic human cholangiocytes; assay: Intracellular Ca^2+ measurement (Fluo-4 AM); type: cell-based
From the text: As described previously [Banales J M et al. Hepatology 2009; Perugorria M J et al. Nature Reviews G&H; Munoz-Garrido P et al. Journal of Hepatology 2015], polycystic (human and rat) cholangiocytes are characterized by a decrease in intracellular Ca^2+ levels, which promotes their proliferation. Furthermore, it has been proven that chronic treatment with UDCA is capable of partially inhibiting the proliferation of polycystic human cholangiocytes through the normalization of intracellular Ca^2+ levels in experimental models [Munoz-Garrido P et al. Journal of Hepatology 2015] and patients [D'Agnolo H M A, et al. Journal of Hepatology 2016] with PLD. […] To that end, the “Fluo-4 AM” (Thermo Fisher Scientific) intracellular Ca^2+ measurement method was used. A Ca^2+ ionophore (i.e., A23187, Sigma) was used as positive control.

human HDAC2 = target: T3, human HDAC2 (Homo sapiens, UniProt Q92769); assay: HDAC2 enzymatic activity assay (fluorogenic peptide); type: biochemical; settings: 10-dose, 3-fold serial dilution, triplicate
T3 construct: His (C); purchased BioMol SE-500; host or cells: baculovirus / Sf9 cells
Description: as §1, §2, §3

human HDAC10 = target: T4, human HDAC10 (Homo sapiens, UniProt Q969S8); assay: HDAC10 enzymatic activity assay (fluorogenic peptide); type: biochemical; settings: 10-dose, 3-fold serial dilution, triplicate
T4 sequence (Q969S8 1-631): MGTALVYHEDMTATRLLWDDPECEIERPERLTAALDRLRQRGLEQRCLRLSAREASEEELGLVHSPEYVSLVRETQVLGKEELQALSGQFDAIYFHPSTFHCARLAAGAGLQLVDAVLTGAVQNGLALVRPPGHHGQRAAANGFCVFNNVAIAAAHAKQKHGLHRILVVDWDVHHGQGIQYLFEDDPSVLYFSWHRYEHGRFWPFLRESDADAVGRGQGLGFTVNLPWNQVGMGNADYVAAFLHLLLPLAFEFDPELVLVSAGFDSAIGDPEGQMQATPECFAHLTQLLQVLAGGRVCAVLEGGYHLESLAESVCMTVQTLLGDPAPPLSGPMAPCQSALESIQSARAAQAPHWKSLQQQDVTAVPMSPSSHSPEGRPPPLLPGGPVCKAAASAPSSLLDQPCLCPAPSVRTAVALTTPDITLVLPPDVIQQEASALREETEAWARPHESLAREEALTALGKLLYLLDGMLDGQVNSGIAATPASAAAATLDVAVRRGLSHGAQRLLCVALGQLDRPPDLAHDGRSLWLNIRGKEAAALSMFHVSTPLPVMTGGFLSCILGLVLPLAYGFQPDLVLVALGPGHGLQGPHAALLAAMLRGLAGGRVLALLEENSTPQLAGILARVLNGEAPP
Description: as §1
50 μl of peptide substrate (see “peptide substrates” section above) and an optimal concentration of the corresponding enzyme (see “enzymes” section above) in the assay buffer at a final DMSO concentration of 1% were incubated in the presence of gradient concentrations of inhibitors (10-dose IC50 mode with 3-fold serial dilution) at 30° C. for 2 hours. The reactions were carried out in a 96-well microplate for fluorometry in a 50 μl reaction volume. After the deacetylation reaction, Fluor-de-Lys-Developer (BioMol Cat. #KI-105) was added to each well to digest the deacetylated substrate, thereby producing the fluorescent signal. The reaction was carried out for 45 minutes at 30° C. with 5% CO2; the fluorescent signal was then measured using an excitation wavelength of 360 nm and an emission wavelength of 460 nm in a microplate-reading fluorometer (GeminiXS, Molecular Devices, Sunnyvale, CA). […]

human HDAC7 = target: T5, human HDAC7 (Homo sapiens, UniProt Q8WUI4); assay: HDAC7 enzymatic activity assay (fluorogenic peptide); type: biochemical; settings: 10-dose, 3-fold serial dilution, triplicate
T5 construct: amino acids 518 end with GST N-terminal tag, MW=78 kDa; GST (N); purchased BioMol, Hamburg, Germany; host or cells: baculovirus expression system
T5 sequence (Q8WUI4 479-952 limits assumed): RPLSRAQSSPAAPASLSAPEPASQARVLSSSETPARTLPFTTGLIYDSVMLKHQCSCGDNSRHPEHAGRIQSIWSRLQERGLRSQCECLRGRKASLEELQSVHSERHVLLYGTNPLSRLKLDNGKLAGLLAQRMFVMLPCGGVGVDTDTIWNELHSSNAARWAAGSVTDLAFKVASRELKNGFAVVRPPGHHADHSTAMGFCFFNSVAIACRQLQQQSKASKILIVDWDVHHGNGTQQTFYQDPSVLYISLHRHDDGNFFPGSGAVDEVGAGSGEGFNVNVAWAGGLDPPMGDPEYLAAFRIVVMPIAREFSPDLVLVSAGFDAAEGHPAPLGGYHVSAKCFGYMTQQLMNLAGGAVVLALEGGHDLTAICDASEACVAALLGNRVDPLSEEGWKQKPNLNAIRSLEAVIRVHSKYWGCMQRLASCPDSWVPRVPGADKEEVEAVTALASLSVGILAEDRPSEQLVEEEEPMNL
Description: as §1, §2, §3

T2 sequence (Q13547 whole entry): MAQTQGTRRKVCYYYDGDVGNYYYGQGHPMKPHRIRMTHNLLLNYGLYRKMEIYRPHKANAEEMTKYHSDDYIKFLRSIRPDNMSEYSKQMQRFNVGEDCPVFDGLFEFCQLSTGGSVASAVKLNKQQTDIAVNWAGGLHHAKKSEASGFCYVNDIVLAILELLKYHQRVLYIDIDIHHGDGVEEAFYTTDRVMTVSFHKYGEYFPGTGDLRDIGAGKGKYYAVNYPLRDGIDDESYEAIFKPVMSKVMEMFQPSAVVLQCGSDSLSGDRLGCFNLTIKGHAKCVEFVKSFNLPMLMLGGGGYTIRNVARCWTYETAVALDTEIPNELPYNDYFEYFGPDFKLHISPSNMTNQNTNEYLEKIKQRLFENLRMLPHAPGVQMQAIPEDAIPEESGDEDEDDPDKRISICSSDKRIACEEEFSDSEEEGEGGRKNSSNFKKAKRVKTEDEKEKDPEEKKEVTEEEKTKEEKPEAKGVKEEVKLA
T3 sequence (Q92769 whole entry): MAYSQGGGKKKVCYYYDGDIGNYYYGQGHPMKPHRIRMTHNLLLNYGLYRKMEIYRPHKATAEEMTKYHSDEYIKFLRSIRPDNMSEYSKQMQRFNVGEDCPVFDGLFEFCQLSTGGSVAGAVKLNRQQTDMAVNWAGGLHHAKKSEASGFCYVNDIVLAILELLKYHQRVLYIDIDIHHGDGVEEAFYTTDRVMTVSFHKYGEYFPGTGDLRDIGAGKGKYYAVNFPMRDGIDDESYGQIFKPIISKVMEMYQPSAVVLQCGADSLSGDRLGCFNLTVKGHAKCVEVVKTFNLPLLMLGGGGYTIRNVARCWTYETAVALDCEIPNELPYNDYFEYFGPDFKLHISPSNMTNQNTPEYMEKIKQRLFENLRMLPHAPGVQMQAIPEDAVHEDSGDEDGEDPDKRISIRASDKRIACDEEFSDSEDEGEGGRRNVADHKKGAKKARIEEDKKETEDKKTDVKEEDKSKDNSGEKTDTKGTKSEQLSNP

SMILES	IC50 (human HDAC8) [µM]	IC50 (human HDAC1) [µM]	intracellular Ca^2+ levels [1]	IC50 (human HDAC2) [µM]	IC50 (human HDAC10) [µM]	IC50 (human HDAC7) [µM]
C[C@H](CCC(=O)NCc1ccc(C(=O)NO)cc1)[C@H]1CC[C@H]2[C@@H]3[C@@H](O)C[C@@H]4C[C@H](O)CC[C@]4(C)[C@H]3CC[C@]12C [Compound Ia]	0.894	10.1	increasing intracellular Ca^2+ levels	18.8	24.5	7.47
C[C@H](CCC(=O)NCC(=O)NCc1ccc(C(=O)NO)cc1)[C@H]1CC[C@H]2[C@@H]3[C@@H](O)C[C@@H]4C[C@H](O)CC[C@]4(C)[C@H]3CC[C@]12C [Ib, 4-((2-((R)-4 ((3R,5S,7S,8R,9S,10S,13R,14S,17R)-3,7-dihydroxy-10,13-dimethylhexadecahydro-1H-cyclopenta[a]phenanthren-17-yl)pentanamide)acetamido)methyl)-N-hydroxybenzamide]	0.615	9.01	increasing intracellular Ca^2+ levels	13.2	21.8	17.6
